“Also recorded” adds a separate entry of the source.
Assays:
Type in all cases: in vivo
[1] = system: potato roots; assay: in vitro root assay with synthetic CLE peptides on potato roots; conditions: 10 μM peptide in assay medium, compared with no peptide or Ag-16p
Source text: (§1) Mounting evidence supports that the conserved CLE motif represents the major functional domain of plant CLE proteins. Gr-CLE genes encode four different 12-aa CLE motifs (FIG. 1A). To examine the functional sufficiency of these nematode CLE motifs, we conducted in vitro root assays (Fiers et al. 2005) using synthetic dodecapeptides (GrCLE1-1-12p, GrCLE4-1-12p, GrCLE4-2-12p, and GrCLE4-3-12p) corresponding to the four CLE motifs of Gr-CLE proteins. A 16-aa peptide (Ag-16p) (Fiers et al. 2005) corresponding to the C-terminus of AGAMOUS that has no similarity with plant CLE motifs and a 12-aa CLV3 peptide (CLV3-12p) were used as negative and positive controls, respectively. In addition, several peptides, including a mutated GrCLE1-1 dodecapeptide (GrCLE1-1m-12p, with a Gly-to-Ala conversion as in clv3-1 and clv3-5 mutants), a 14-aa GrCLE1-1 peptide (GrCLE1-1-14p, with one additional N-terminal and one additional C-terminal residue compared to Gr-CLE1-1-12p), and three 13-aa peptides of GrCLE4-1-13p, GrCLE4-2-13p, and GrCLE4-3-13p (all contained an extra N-terminal lysine residue compared to the corresponding dodecapeptides), were synthesized and used in the in vitro root assays.
(§2) Peptides with a purity of >70% were synthesized (Sigma-Aldrich Corp., St. Louis, Mo., U.S.A) and dissolved in filter-sterilized 50 mM sodium phosphate buffer. Three Gr-CLE-1 related peptides were synthesized: GrCLE1-1-12p (12 aa, RVIPGGPDPLHN; SEQ ID NO: 12), GrCLE1-1m-12p (12 aa, RVIPGAPDPLHN; SEQ ID NO: 13, with a G-to-A conversion at position 6), and GrCLE1-1-14p (14 aa, KRVIPGGPDPLHNR; SEQ ID NO: 14). Six Gr-CLE-4 related peptides were synthesized: GrCLE4-1-12p (12 aa, RVAGAGPDPIHH; SEQ ID NO: 15), GrCLE4-1-13p (13 aa, KRVAGAGPDPIHH; SEQ ID NO: 16), GrCLE4-2-12p (12 aa, RAVPAGPDPKHH; SEQ ID NO: 17), GrCLE4-2-13p (13 aa, KRAVPAGPDPKHH; SEQ ID NO: 18), GrCLE4-3-12p (12 aa, RGAPAGPDP IHH; SEQ ID NO: 19), and GrCLE4-3-13p (13 aa, KRGAPAGPDPIHH; SEQ ID NO: 20). Positive and negative control peptides included CLV3-12p (12 aa, RTVPSGPDPLHH; SEQ ID NO: 21) and Ag-16p (16 aa, APNNHHYSSAGRQDQT; SEQ ID NO: 22) (Fiers et al., 2005).
(§3) For peptide treatments, seeds of wild-type Arabidopsis (Columbia-0) and potato, nonhost and host of G. rostochiensis, respectively, were surface-sterilized and plated on square plates (8-12 seeds per plate) containing the assay medium (Fiers et al. 2005, supra) with 10 μM of each peptide. Assay plates were placed vertically in a growth chamber and cultured at 23° C. for 16 h of light and 8 h of dark. The root length was measured from the base of the hypocotyl to the tip of the primary root at several time points after plating. Two independent experiments were conducted.

[2] = system: Arabidopsis (Columbia-0) root apical meristem; assay: microscopic examination of root apical meristem of peptide treated Arabidopsis roots; conditions: Arabidopsis primary roots 8 days after peptide treatment
Source text: (§4) To examine root meristems, primary root tips were excised from peptide treated Arabidopsis seedlings or from transgenic potato hairy roots and immediately mounted in water onto a glass slide. Roots were examined under an Olympus BX-50 microscope equipped with Nomarski optics and images were captured using a QImaging Retiga EXi digital CCD camera (QImaging, Surrey, BC, Canada). The root apical meristem (RAM) regions of individual primary roots that covered the distance from the position around the quiescent center to the position where elongated root cells immediately follow cytoplasm-dense meristematic cells were measured microscopically. The collected data were analyzed using the MetaMorph imaging analysis software (Universal Imaging Corporation, Downingtown, Pa., U.S.A.)

[3] = system: Arabidopsis (Columbia-0) roots; assay: in vitro root assay with synthetic CLE peptides on Arabidopsis roots; conditions: 10 μM peptide in assay medium, compared with no peptide or Ag-16p
Source text: as §1, §2, §3

[4] = system: Arabidopsis clv3-2 mutant plants; assay: complementation of clv3-2 mutant by Gr-CLE genes under CLV3 promoter; conditions: gene under control of CLV3 promoter in clv3-2
Source text: Gr-CLE proteins can completely or partially replace CLV3 activity within meristems. For the complementation study, Gr-CLE genes were subcloned into pBU14 under the control of the CLV3 promoter (Brand et al. 2002. Plant Physiol. 129:565-575). To generate the PCLV3:Gr-CLE-1 construct, primer pair of CLE1-spF and CLE1-TGAxbaR was used. To generate PCLV3:Gr-CLE-4-B and PCLV3:Gr-CLE-4-C constructs, primer pair of CLE4B1-spF and 4B1-TGAxbaR was used. Each amplified PCR product was cloned into pBU14 at BamHI and XbaI sites. Arabidopsis clv3-2 mutant plants were transformed with A. tumefaciens GV3101 harboring each of the above constructs.
All transformants were selected on ½×MS medium containing 50 μg/mL of kanamycin (Sigma-Aldrich) (for the pMD1 vector) or 30 μg/mL of glufosinate ammonium (Fisher, Pittsburgh, Pa., U.S.A.) (for the pBU14 vector) and transgenic Arabidopsis plants were then cultivated at 24° C. for 16 h of light and 8 h of dark in a growth room. For measuring the root growth rate, transgenic plants expressing individual Gr-CLE genes or the empty vector were first selected on kanamycin containing medium for five days, then transferred to ½×MS plates and cultured vertically at 24° C. for 16 h of light and 8 h of dark in a growth chamber (Percival, Perry, Iowa, U.S.A.).
Gr-CLE-1, Gr-CLE-4-B, and Gr-CLE-4-C were the most representative Gr-CLE genes identified. To determine if these genes could replace CLV3 activity in the shoot and floral meristems, the full-length sequences of these three genes were cloned under the control of the CLV3 promoter and introduced into Arabidopsis clv3-2 mutant plants. clv mutants have enlarged shoot and floral meristems that lead to shoot fasciation and formation of extra floral organs including an increase in carpel number (Clark et al. 1993, 1995; Kayes and Clark 1998). For example, flowers of a clv3-2 mutant usually have six to seven carpels in the fourth whorl (Clark et al. 1995), whereas wild-type flowers have only two carpels in the fourth whole. Carpel number is a sensitive measurement for meristem size (Clark et al. 1993; Ni and Clark 2006). Multiple independent transgenic lines for each transgene were obtained and analyzed (Table 2).

[5] = system: potato hairy roots; assay: overexpression of Gr-CLE genes in potato hairy roots; conditions: measured at 4, 6, 8 and 10 days after dissecting; compared with vector control
Source text: as §4
A. rhizogenes strain 15834 was transformed with individual transgene constructs of interest and used for the generation of potato hairy roots as described previously (Wang et al. 2007. Mol. Plant Pathol. 8:423-436) with some modifications. Potato stem pieces from tissue cultures were incubated with the transformed A. rhizogenes cell suspension for 10 mins, then transferred onto the callus induction medium containing 1×MS salts (Sigma-Aldrich), 26.7 μM Glycine, 4 μM Nicotinic Acid, 2.4 μM Pyridoxine HCL (Sigma-Aldrich), 1.2 μM Thiamine HCL (Sigma-Aldrich), 0.5 μM Folic Acid, 0.2 μM d-biotin (Sigma-Aldrich), 0.01% Myo-inositol (Acros, Morris Plains, N.J., U.S.A.), 3% sucrose, 0.001% 6-BAP (Sigma-Aldrich), 0.002% NAA (Sigma-Aldrich), and 1% agar and cultivated for four days at 24° C. without light. The infected stem pieces were then cultured on the propagation medium containing 1×MS salts, 1.2 mM NaH2PO4, 0.01% Myo-inositol, 0.1% Thiamine HCl, 3% sucrose, 1% agar, 50 μg/mL of kanamycin, and 238 μg/mL of timentin (GlaxoSmithKline). Timentin was used to inhibit the growth of A. rhizogenes 15834 and kanamycin was added to select for transformed roots. Approximately 12-15 days after root emergence, 1 cm-long root tips were dissected and cultured on vertical plates containing the propagation medium with 119 μg/mL of timentin and the root growth rate was measured at different time points.

| Molecule | suppression of root growth (length of main root) [1] | root meristem consumption (size of root apical meristem) [2] | suppression of root growth (length of main root) [3] | suppression of root growth (length of main root) ([3]; listed as GrCLE1-1) | average number of carpels in flowers and siliques [4] | rescue of clv3-2 meristem defects [4] | length of primary roots of transgenic potato hairy root lines [5] |
| --- | --- | --- | --- | --- | --- | --- | --- |
| RTVPSGPDPLHH (listed as Globodera rostochiensis) [CLV3-12p, 12-aa CLV3 peptide, positive control, reference compound] | severely suppressed root growth | showed a phenotype of root meristem consumption | severely suppressed root growth |  |  |  |  |
| RVIPGGPDPLHN (listed as Globodera rostochiensis) [GrCLE1-1-12p, synthetic 12 aa dodecapeptide of the GrCLE1-1 CLE motif] | suppressed root growth; also recorded: comparable level of suppression as CLV3-12p; also recorded: significantly shorter | more severe; also recorded: significantly less | suppressed root growth; also recorded: comparable level of suppression as CLV3-12p; also recorded: significantly shorter | higher degree of root suppression |  |  |  |
| Gr-CLE-4-C: G. rostochiensis CLE gene of class Gr-CLE-4 with a single CLE motif, cDNA SEQ ID NO: 5 (nucleic acid, listed as Globodera rostochiensis) DNA: ATCATAATTTCCAAAATCCCAATAAAAGCTTCCTCAATAAAGTAAATATGGCCACGAACACAATGCTTTGCCTGTTTGTTATAAGCGTTGTTCTCGCTCTCGCATTTGCTACGAATAAAAAGGGTGATGAAGAACCGGAGAACCATTCGACCGGCATTTTTGGAAAGGTCGGACGAGTTGTGACCGTGGCACTTGCGATGTCGTCTCGTCTGGGAGGGGCTGACGCAACCCGAGGAGGTGGAGCTGTATATGGAGGAAACTTGAAATCCAATCAATTGCCAAACAACAATTGGATGGCGCCACCTCCTCCAATGGCAATAAGAAGTGCCAAAGTCTATGATTCGAAACATTCTCCTGCTGAATATCTTAAAAAATTTGCTCAAGACTTTCGCCGAAAAACCGGCATGCACTCCCAGCGGCATCACGAAGAAACAACACTGGAACAGGAGAAGCGTGTAGCGGGAGCTGGTCCCGACCCAATACATCACTGATGCTCTTATTCACAATGCTAAAATATCTGTAGACTATAGATAAATTGCTAGCAACAG |  |  |  |  | three to four | partial rescue | short root phenotype |

Source: patent US8569578B1, “Generating transgenic potatoes with novel resistance to potato cyst nematodes by silencing nematode parasitism genes of CLE -1 and CLE-4s” (The United States of America, as represented by the …, priority 2009, dated 2013)
